Assay results published in patent publication US6274715A, “Tricyclic erythromycin derivatives” (priority 1997, dated 2001).
Values after ≈ are worked out from the molar mass of the structure shown.

Key:
Format in all cases: cell-based
[1] = system: STAPHYLOCOCCUS AUREUS A-5278; test: In vitro antibacterial activity, MIC, BHI agar dilution; settings: S. aureus A-5278, unit assumed
[2] = system: STAPHYLOCOCCUS AUREUS CMX 642A; test: as above; settings: S. aureus CMX 642A, unit assumed
[3] = system: STAPHYLOCOCCUS AUREUS CMX 553; test: as above; settings: S. aureus CMX 553, unit assumed
[4] = system: STAPHYLOCOCCUS AUREUS 1775; test: as above; settings: S. aureus 1775, unit assumed
[5] = system: STAPHYLOCOCCUS EPIDERMIDIS 3519; settings: S. epidermidis 3519; BHI agar; unit assumed
EN[…] ATCC 8043 = test: In vitro antibacterial activity, MIC, BHI agar dilution; settings: E. faecium ATCC 8043, unit assumed
Experimental: (§1) Representative compounds of the present invention were assayed in vitro for antibacterial activity as follows: Twelve petri dishes containing successive aqueous dilutions of the test compound mixed with 10 mL of sterilized Brain Heart Infusion (BHI) agar (Difco 0418-01-5) were prepared. Each plate was inoculated with 1:100 (or 1:10 for slow-growing strains, such as Micrococcus and Streptococcus) dilutions of up to 32 different microorganisms, using a Steers replicator block. The inoculated plates were incubated at 35-37° C. for 20 to 24 hours. In addition, a control plate, using BHI agar containing no test compound, was prepared and incubated at the beginning and end of each test.
(§2) An additional plate containing a compound having known susceptibility patterns for the organisms being tested and belonging to the same antibiotic class as the test compound was also prepared and incubated as a further control, as well as to provide test-to-test comparability. Erythromycin A was used for this purpose.
(§3) After incubation, each plate was visually inspected. The minimum inhibitory concentration (MIC) was defmed as the lowest concentration of drug yielding no growth, a slight haze, or sparsely isolated colonies on the inoculum spot as compared to the growth control.

M[…] ATCC 4698 = test: as above; settings: M. luteus ATCC 4698, unit assumed
Experimental: as §1, §2, §3

M[…] ATCC 9341 = test: as above; settings: M. luteus ATCC 9341, unit assumed
Experimental: as §1, §2, §3

STR[…] 508 = test: as above
Experimental: as §1, §2, §3

[6] = system: STREPTOCOCCUS BOVIS A-5169; test: as above; settings: S. bovis A-5169, unit assumed
[7] = system: STREPTOCOCCUS PYOGENES EES61; test: as above
[8] = system: STREPTOCOCCUS PYOGENES 930; test: as above
[9] = system: STREPTOCOCCUS PYOGENES PIU 2548; test: as above; settings: S. pyogenes PIU 2548, unit assumed
ESCHERICHIA COLI JUHL = settings: E. coli JUHL; BHI agar; unit assumed
ESCHERICHIA COLI SS = test: In vitro antibacterial activity, MIC, BHI agar dilution; settings: E. coli SS
ESCHERICHIA COLI DC-2 = test: as above; settings: E. coli DC-2, unit assumed
ESCHERICHIA COLI H560 = test: as above; settings: E. coli H560, unit assumed
ESCHERICHIA COLI KNK 437 = settings: E. coli KNK 437; BHI agar; unit assumed
[10] = system: ENTEROBACTER AEROGENES ATCC 13048; test: In vitro antibacterial activity, MIC, BHI agar dilution; settings: E. aerogenes ATCC 13048, unit assumed
[11] = system: KLEBSIELLA PNEUMONIAE ATCC 8045; test: as above; settings: K. pneumoniae ATCC 8045, unit assumed
[12] = system: PROVIDENCIA STUARTII CMX 640; settings: P. stuartii CMX 640; BHI agar; unit assumed
[13] = system: PSEUDOMONAS AERUGINOSA BMH10; test: In vitro antibacterial activity, MIC, BHI agar dilution; settings: P. aeruginosa BMH10, unit assumed
[14] = system: PSEUDOMONAS AERUGINOSA 5007; test: as above; settings: P. aeruginosa 5007, unit assumed
[15] = system: PSEUDOMONAS AERUGINOSA K799/WT; test: as above; settings: P. aeruginosa K799/WT, unit assumed
PSEUDOMONAS CEPACIA 296I = test: as above; settings: P. cepacia 296I, unit assumed
[16] = system: PSEUDOMONAS AERUGINOSA DPHD-5263; test: as above; settings: P. aeruginosa DPHD-5263, unit assumed
[17] = system: PSEUDOMONAS AERUGINOSA DPHD-2862; test: as above; settings: P. aeruginosa DPHD-2862, unit assumed
CANDIDA ALBICANS CCH 442 = test: as above
[18] = system: MYCOBACTERIUM SMEGMATIS ATCC 114; test: as above; settings: M. smegmatis ATCC 114, unit assumed
[19] = system: STAPHYLOCOCCUS AUREUS ATCC 6538P; test: as above; settings: S. aureus ATCC 6538P, 35-37° C., 20 to 24 hours, unit assumed
[20] = system: STAPHYLOCOCCUS AUREUS NCTC10649M; test: as above; settings: S. aureus NCTC10649M, unit assumed
[21] = system: PSEUDOMONAS AERUGINOSA K799/61; test: as above
[22] = S. agalactiae CMX 508, unit assumed
[23] = S. pyogenes EES61, unit assumed
[24] = C. albicans CCH 442, unit assumed

| SMILES | MIC [1] | MIC [2] | MIC [3] | MIC [4] | MIC [5] | MIC (EN[…] ATCC 8043) | MIC (M[…] ATCC 4698) | MIC (M[…] ATCC 9341) | MIC (STR[…] 508; [22]) | MIC [6] | MIC [7, 23] | MIC ([8]; S. pyogenes 930, unit assumed) | MIC [9] | MIC (ESCHERICHIA COLI JUHL) | MIC (ESCHERICHIA COLI SS; unit assumed) | MIC (ESCHERICHIA COLI DC-2) | MIC (ESCHERICHIA COLI H560) | MIC (ESCHERICHIA COLI KNK 437) | MIC [10] | MIC [11] | other results |
| --- | --- | --- | --- | --- | --- | --- | --- | --- | --- | --- | --- | --- | --- | --- | --- | --- | --- | --- | --- | --- | --- |
| CCC1OC(=O)C(C)C(=O)C(C)C(OC2OC(C)CC(N(C)C)C2O)C(C)(OC)CC(C)C2=NCC(C)(CN(C)C)N3C(=O)OC1(C)C3C2C (stereo not drawn) [Example 136] | > 100 µg/mL | 1.56 µg/mL (≈ 2.2 µM) | 1.56 µg/mL (≈ 2.2 µM) | > 100 µg/mL | 1.56 µg/mL (≈ 2.2 µM) | 0.2 µg/mL (≈ 0.282 µM) | 0.78 µg/mL (≈ 1.1 µM) | 0.1 µg/mL (≈ 0.141 µM) | 0.1 µg/mL (≈ 0.141 µM) | 0.02 µg/mL (≈ 0.0282 µM) | 0.1 µg/mL (≈ 0.141 µM) | > 100 µg/mL | 1.56 µg/mL (≈ 2.2 µM) | 100 µg/mL (≈ 141 µM) | 0.78 µg/mL (≈ 1.1 µM) | > 100 µg/mL | 100 µg/mL (≈ 141 µM) | > 100 µg/mL | > 100 µg/mL | > 100 µg/mL | MIC [12]: > 100 µg/mL; MIC [13]: > 100 µg/mL; MIC [14]: > 100 µg/mL; MIC [15]: > 100 µg/mL; MIC (PSEUDOMONAS CEPACIA 296I): > 100 µg/mL; MIC [16]: > 100 µg/mL; MIC [17]: > 100 µg/mL; MIC (CANDIDA ALBICANS CCH 442; [24]): > 100 µg/mL; MIC [18]: 6.2 µg/mL (≈ 8.75 µM) |
| CC[C@H]1OC(=O)[C@H](C)C(=O)[C@H](C)[C@@H](O[C@@H]2O[C@H](C)C[C@H](N(C)C)[C@H]2O)[C@](C)(OC)C[C@@H](C)C2=NC(COCc3ccccc3)C(COCc3ccccc3)N3C(=O)O[C@@]1(C)[C@H]3[C@H]2C (stereo partly drawn) [Example 146] | 50 µg/mL (≈ 56.9 µM) | 0.39 µg/mL (≈ 0.444 µM) | 0.39 µg/mL (≈ 0.444 µM) | 50 µg/mL (≈ 56.9 µM) | 0.39 µg/mL (≈ 0.444 µM) | 0.05 µg/mL (≈ 0.0569 µM) | 0.2 µg/mL (≈ 0.228 µM) | 0.05 µg/mL (≈ 0.0569 µM) | 0.05 µg/mL (≈ 0.0569 µM) | 0.05 µg/mL (≈ 0.0569 µM) | 0.05 µg/mL (≈ 0.0569 µM) | 12.5 µg/mL (≈ 14.2 µM) | 0.78 µg/mL (≈ 0.888 µM) | 50 µg/mL (≈ 56.9 µM) | 0.78 µg/mL (≈ 0.888 µM) | 100 µg/mL (≈ 114 µM) | 25 µg/mL (≈ 28.5 µM) | 25 µg/mL (≈ 28.5 µM) | > 100 µg/mL | 100 µg/mL (≈ 114 µM) | MIC [19]: 0.39 µg/mL (≈ 0.444 µM); MIC [20]: 0.39 µg/mL (≈ 0.444 µM); MIC [12]: 100 µg/mL (≈ 114 µM); MIC [13]: 100 µg/mL (≈ 114 µM); MIC [14]: 100 µg/mL (≈ 114 µM); MIC [15]: 100 µg/mL (≈ 114 µM); MIC ([21]; P. aeruginosa K799/61, unit assumed): 0.78 µg/mL (≈ 0.888 µM); MIC (PSEUDOMONAS CEPACIA 296I): 25 µg/mL (≈ 28.5 µM); MIC [16]: 100 µg/mL (≈ 114 µM); MIC [17]: 100 µg/mL (≈ 114 µM); MIC (CANDIDA ALBICANS CCH 442; [24]): 50 µg/mL (≈ 56.9 µM); MIC [18]: 0.39 µg/mL (≈ 0.444 µM) |
| CC[C@H]1OC(=O)[C@H](C)C(=O)[C@H](C)[C@@H](O[C@@H]2O[C@H](C)C[C@H](N(C)C)[C@H]2O)[C@](C)(OC)C[C@@H](C)C2=NC(COCc3ccc(Cl)cc3)C(COCc3ccc(Cl)cc3)N3C(=O)O[C@@]1(C)[C@H]3[C@H]2C (stereo partly drawn) [Example 148] | 12.5 µg/mL (≈ 13.2 µM) |  |  |  |  | 0.78 µg/mL (≈ 0.824 µM) | 1.56 µg/mL (≈ 1.65 µM) |  |  | 0.2 µg/mL (≈ 0.211 µM) |  |  | 3.1 µg/mL (≈ 3.27 µM) |  |  |  |  |  |  |  | MIC (STR[…] 508; S. agalactiae CMX 508, listed as Ex 148, unit assumed): 0.39 µg/mL (≈ 0.412 µM); MIC ([7]; S. pyogenes EES61, listed as Ex 148, unit assumed): 0.2 µg/mL (≈ 0.211 µM); MIC ([8]; S. pyogenes 930, listed as Ex 148, unit assumed): 6.2 µg/mL (≈ 6.55 µM); MIC (ESCHERICHIA COLI SS; listed as Ex 148, unit assumed): 25 µg/mL (≈ 26.4 µM); MIC ([21]; P. aeruginosa K799/61, listed as Ex 148, unit assumed): 25 µg/mL (≈ 26.4 µM); MIC (CANDIDA ALBICANS CCH 442; C. albicans CCH 442, listed as Ex 148, unit assumed): > 100 µg/mL |
